{
  "source": "patent US9267111B2",
  "about": "“Methods of treating female subjects in need of in vitro fertilization” (The General Hospital Corporation, priority 2004, dated 2016)",
  "origin": "cited, not measured here",
  "system": "germ line stem cells and spermatogonia in irradiated testicular tissue",
  "settings": "versus untreated tissues",
  "data": [
    {"smiles": "CCCCCCCCCCCCC/C=C/[C@@H](O)[C@@H](N)COP(=O)(O)O", "note": "[S1P, Sphingosine-1-phosphate]", "values": [
      {"measurement": "numbers of primary spermatocytes and spermatogonia", "value": "higher than untreated tissues"}
    ]}
  ]
}
